In US12599672B2, “KRAS proteolysis targeting chimeras” (PAQ Therapeutics Inc., priority 2023, dated 2026):

Target: T1, KRAS G12V (Homo sapiens, UniProt P01116, G12V)
T1 construct: SW620-KRAS (G12V)-HiBit-KI cell (Pharmaron); host or cells: SW620-KRAS (G12V)-HiBit-KI cells (HiBiT knock-in at the endogenous KRAS locus)
Experiment: KRAS G12V HiBit assay
Assay type: cell-based
Conditions: SW620-KRAS (G12V)-HiBit-KI cells, compound treatment for 24 hours, class symbols
Description: Day 1. […] Rinsed cultivated cells in T-75 flasks with 5 mL PBS (Solarbio, P1020-500). […] Inactivated trypsin by adding excessive serum containing medium. Harvested the cells from flask into cell culture medium and counted the cell number.
Day 2. Test compounds were dissolved at 0.3 mM in DMSO (Solarbio, D8371) as stock solution. […] Performed 3-fold, 10-points dilution via transferring 15 μL compound into 30 μL DMSO by using TECAN liquid handler (TECAN, Freedom EVO200). […] After compound treatment for 24 hours, the plate was removed from incubators and equilibrated at room temperature for 15 minutes. Prepare the HiBit reagent (Promega, N3040) by mixing 10 mL of Nano-Glo®-HiBiT Lytic Buffer with 200 μL of Nano-Glo®-HiBiT Lytic Substrate and 100 μL of LgBiT Protein. Added 20 μL of HiBit reagent into each well of the cell plate and spun the plates at room temperature at 1,000 RPM for 1 minute.
The degradation activity was calculated using the following formula:
(§1) [formula] where HC (high control) is obtained from cells treated with 0.1% DMSO only.

T1 sequence (P01116 1-188 isoform P01116-2 G12V): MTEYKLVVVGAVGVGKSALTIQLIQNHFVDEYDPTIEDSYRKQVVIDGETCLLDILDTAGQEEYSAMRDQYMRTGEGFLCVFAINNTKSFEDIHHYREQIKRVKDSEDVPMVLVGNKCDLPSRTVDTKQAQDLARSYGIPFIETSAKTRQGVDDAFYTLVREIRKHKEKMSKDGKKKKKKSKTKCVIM

DC50	Compound
> 100 nM	C#Cc1c(F)ccc2cc(O)cc(-c3ncc4c(N5CCC[C@@](C)(O)C5)nc(OC[C@@]56CCCN5[C@H](COC(=O)N5CCC(N7CCC(c8cccc9c8n(C)c(=O)n9C8CCC(=O)NC8=O)CC7)CC5)CC6)nc4c3F)c12 (stereo partly shown) [Compound 148]
> 100 nM	C[C@H]1CN(CCOCCOCCOCCOc2ccc3c(c2)n(C)c(=O)n3C2CCC(=O)NC2=O)CCCN1c1nccc(-c2noc([C@@]3(C)CCCc4sc(N)c(C#N)c43)n2)n1 (stereo partly drawn) [Compound 200, (4S)-2-amino-4-(3-(2-((2S)-4-(2-(2-(2-(2-((1-(2,6-dioxopiperidin-3-yl)-3-methyl-2-oxo-2,3-dihydro-1H-benzo[d]imidazol-5-yl)oxy)ethoxy)ethoxy)ethoxy)ethyl)-2-methyl-1,4-diazepan-1-yl)pyrimidin-4-yl)-1,2,4-oxadiazol-5-yl)-4-methyl-4,5,6,7-tetrahydrobenzo[b]thiophene-3-carbonitrile]
> 100 nM	C[C@H]1CN(CCOCCOCCOc2ccc3c(c2)n(C)c(=O)n3C2CCC(=O)NC2=O)CCCN1c1nccc(-c2noc([C@@]3(C)CCCc4sc(N)c(C#N)c43)n2)n1 (stereo partly drawn) [Compound 202, (4S)-2-amino-4-(3-{2-[(2S)-4-{2-[2-(2-{[1-(2,6-dioxopiperidin-3-yl)-3-methyl-2-oxo-1,3-benzodiazol-5-yl]oxy}ethoxy)ethoxy]ethyl}-2-methyl-1,4-diazepan-1-yl]pyrimidin-4-yl}-1,2,4-oxadiazol-5-yl)-4-methyl-6,7-dihydro-5H-1-benzothiophene-3-carbonitrile]
> 100 nM	C[C@H]1CN(CCOCCOc2ccc3c(c2)n(C)c(=O)n3C2CCC(=O)NC2=O)CCCN1c1nccc(-c2noc([C@]3(C)CCCc4sc(N)c(C#N)c43)n2)n1 (stereo partly shown) [Compound 216]
> 100 nM	C[C@H]1CN(CCOCCOCCOc2ccc3c(c2)n(C)c(=O)n3C2CCC(=O)NC2=O)CCCN1c1nccc(-c2noc([C@]3(C)CCCc4sc(N)c(C#N)c43)n2)n1 (stereo partly shown) [Compound 217]
> 100 nM	C[C@H]1CN(CCOCCOCCOCCOc2cccc3c2n(C)c(=O)n3C2CCC(=O)NC2=O)CCCN1c1nccc(-c2noc([C@@]3(C)CCCc4sc(N)c(C#N)c43)n2)n1 (stereo partly shown) [Compound 219]
> 100 nM	C[C@H]1CN(CCOCCOCCOc2cccc3c2n(C)c(=O)n3C2CCC(=O)NC2=O)CCCN1c1nccc(-c2noc([C@@]3(C)CCCc4sc(N)c(C#N)c43)n2)n1 (stereo partly shown) [Compound 220]
> 100 nM	C[C@H]1CN(CCOCCOc2cccc3c2n(C)c(=O)n3C2CCC(=O)NC2=O)CCCN1c1nccc(-c2noc([C@@]3(C)CCCc4sc(N)c(C#N)c43)n2)n1 (stereo partly shown) [Compound 221]

Target: T2, KRAS G12D (Homo sapiens, UniProt P01116, G12D)
T2 construct: AsPc-1-KRAS (G12D)-HiBit-KI cell (Pharmaron); host or cells: AsPc-1-KRAS (G12D)-HiBit-KI cells (HiBiT knock-in at the endogenous KRAS locus)
T2 sequence (P01116 1-188 isoform P01116-2 G12D): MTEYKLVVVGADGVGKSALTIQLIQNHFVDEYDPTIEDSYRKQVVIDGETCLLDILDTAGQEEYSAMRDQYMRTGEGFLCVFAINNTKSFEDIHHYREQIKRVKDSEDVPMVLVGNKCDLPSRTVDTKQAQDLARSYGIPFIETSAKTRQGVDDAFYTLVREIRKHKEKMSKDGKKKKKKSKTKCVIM
Experiment: KRAS G12D HiBit assay
Assay type: cell-based
Conditions: AsPc-1-KRAS (G12D)-HiBit-KI cell, compound treatment for 24 hours, absolute DC50; class symbols
Description: Day 1. […] Allowed cells to reach approximately 80% confluence before splitting. Rinsed cultivated cells in T-75 flasks with 5 mL PBS (Solarbio, P1020-500). […] Inactivated trypsin by adding excessive serum containing medium. Harvested the cells from flask into cell culture medium and counted the cell number.
Day 2. Test compounds were dissolved at 0.3 mM in DMSO (Solarbio, D8371) as stock solution. […] Performed 3-fold, 10-points dilution via transferring 15 μL compound into 30 μL DMSO by using TECAN liquid handler (TECAN, Freedom EVO200).
Day 3. After compound treatment for 24 hours, removed the plate from incubators and equilibrated at room temperature for 15 minutes. Prepared the HiBit reagent (Promega, N3040) by mixing 10 mL of Nano-Glo®-HiBiT Lytic Buffer with 200 μL of Nano-Glo®-HiBiT Lytic Substrate and 100 μL of LgBiT Protein. Added 20 μL of HiBit reagent into each well of the cell plate and spun the plates at room temperature at 1,000 RPM for 1 minute.
The inhibition activity was calculated using the following formula:
as §1

DC50	Compound
> 300 nM	C#Cc1c(F)ccc2cc(O)cc(-c3ncc4c(N5CCC[C@@](C)(O)C5)nc(OC[C@@]56CCCN5[C@H](COC(=O)NCCOCCOCCOc5ccc7c(c5)n(C)c(=O)n7C5CCC(=O)NC5=O)CC6)nc4c3F)c12 (stereo partly drawn) [Compound 115, ((3S,7aS)-7a-(((7-(8-ethynyl-7-fluoro-3-hydroxynaphthalen-1-yl)-8-fluoro-4-((R)-3-hydroxy-3-methylpiperidin-1-yl)pyrido[4,3-d]pyrimidin-2-yl)oxy)methyl)hexahydro-1H-pyrrolizin-3-yl)methyl (2-(2-(2-((1-(2,6-dioxopiperidin-3-yl)-3-methyl-2-oxo-2,3-dihydro-1H-benzo[d]imidazol-5-yl)oxy)ethoxy)ethoxy)ethyl) carbamate]
> 300 nM	C#Cc1c(F)ccc2cccc(-c3ncc4c(N5CCC[C@@](C)(O)C5)nc(OC[C@@]56CCCN5[C@H](COC(=O)N5CCC(CN7CCC(c8ccc9c(c8)n(C8CCC(=O)NC8=O)c(=O)n9C)CC7)CC5)CC6)nc4c3F)c12 (stereo partly shown) [Compound 136]
